By LogP is commonly meant the decadic logarithm of the partition coefficient of the neutral form, usually between octanol and water. As usually defined, the chromatographic logP is lipophilicity estimated from chromatographic retention.

Molecules are shown by their SMILES.

Series [1] has as its system Phytophthora infestans. The class given is in vivo. Particulars: 100 ppm of active ingredient, spray on young tomato plants, inoculated one day after treatment, evaluated 7 days after inoculation.
A further series relates to Plasmopara viticola. The series is described as follows: Example I: in vivo preventive test on Plasmopara viticola (grapevines). Particulars: 10 ppm of active ingredient, spray on young grapevine plants, inoculated after spray coating dried, evaluated 6 days after inoculation. Here is the method:
To produce a suitable preparation of active compound, 1 part by weight of active compound is mixed with the stated amounts of solvent and emulsifier, and the concentrate is diluted with water to the desired concentration.
To test for preventive activity, young plants are sprayed with the preparation of active compound at the stated rate of application. After the spray coating has dried on, the plants are inoculated with an aqueous spore suspension of Plasmopara viticola and then remain for 1 day in an incubation cabinet at approximately 20° C. and a relative atmospheric humidity of 100%. The plant is subsequently placed for 4 days in a greenhouse at approximately 21° C. and a relative atmospheric humidity of approximately 90%. The plants are then misted and placed for 1 day in an incubation cabinet.
The test is evaluated 6 days after the inoculation. 0% means an efficacy which corresponds to that of the untreated control, while an efficacy of 100% means that no disease is observed.

For series [2] the following is noted: pH 2.7.
For series [3] the following is noted: pH 2.7. This is another data set of the same source.
Series [4] has as its system Phytophthora infestans. It is filed as in vivo. The following applies: 500 ppm, spray on tomato plants, contaminated after 24 hours, grading 5 days after contamination vs control plants.

Take `CCCCCCC(=O)Nc1nc(CON=C(c2ccccc2)c2nc(=O)on2C)cs1` [Example 1]: the Eff. % in the series on Phytophthora infestans [1] stood at 87%; in the series with Plasmopara viticola, 90%. The lipophilicity (LogP) in series [2] was determined as 3.55.

With `CC(Oc1ccccc1)C(=O)Nc1nc(CON=C(c2ccccc2)c2nc(=O)on2C)cs1` (stereo not drawn) [Example 2], the Eff. % in the series with Phytophthora infestans [1] and in the series on Plasmopara viticola was 97% each time. Moreover, the lipophilicity (LogP) in series [2] is 3.15.

In series [3], `Cn1oc(=O)nc1/C(=N\OCc1csc(N)n1)c1ccccc1` [Example 4, 3-[(Z)-{[(2-amino-1,3-thiazol-4-yl)methoxy]imino}(phenyl)methyl]-2-methyl-1,2,4-oxadiazol-5(2H)-one] had a chromatographic logP of 1.07.

Turning to `Cn1oc(=O)nc1C(=NOCc1csc(NC(=O)COc2ccccc2)n1)c1ccccc1` [Example 8], the Eff. % in the series with Phytophthora infestans [1] was 95%; with Plasmopara viticola, 97%. The LogP in series [2] was found to be 2.98.

For `Cn1oc(=O)nc1/C(=N\OCc1csc(NC(=O)C2COc3ccccc3O2)n1)c1ccccc1` (stereo not drawn) [Example 9, N-{4-[({[(Z)-(2-methyl-5-oxo-2,5-dihydro-1,2,4-oxadiazol-3-yl)(phenyl)methylene]amino}oxy)methyl]-1,3-thiazol-2-yl}-2,3-dihydro-1,4-benzodioxine-2-carboxamide], the Eff. % in the series on Phytophthora infestans [1] is given as 98%; in the series with Plasmopara viticola, 97%. In series [3], this compound gave a chromatographic logP of 3.11.

Turning to `C#CCC(C)OC(=O)Nc1nc(CON=C(c2ccccc2)c2nc(=O)on2C)cs1` (stereo not drawn) [Example 10], the values for the Eff. % with Phytophthora infestans [1] and in the series on Plasmopara viticola were 93% and 88%, respectively. The compound also registered a LogP in series [2] of 2.80.

As to `C#CCCOC(=O)Nc1nc(CON=C(c2ccccc2)c2nc(=O)on2C)cs1` [Example 11], the Eff. % with Phytophthora infestans [1] was found to be 70%; in the series with Plasmopara viticola, 78%. The compound further registered a LogP in series [2] of 2.56.

As for `CCCCCC(=O)Nc1nc(CON=C(c2ccccc2)c2nc(=O)on2C)cs1` [Example 12], the Eff. % with Phytophthora infestans [1] came out at 92%; in the series with Plasmopara viticola it was 94%. The compound further registered a LogP in series [2] of 3.19.

As for `CCCCCCCC(=O)Nc1nc(CON=C(c2ccccc2)c2nc(=O)on2C)cs1` [Example 13], the Eff. % in the series on Phytophthora infestans [1] is reported as 95%; with Plasmopara viticola it was 99%. In addition, the LogP in series [2] was determined as 3.94.

Regarding `Cn1oc(=O)nc1C(=NOCc1csc(NC(=O)OCCc2ccccc2)n1)c1ccccc1` [Example 14], the Eff. % turned out to be 95% with Phytophthora infestans [1] and 99% in the series on Plasmopara viticola. The same compound registered a LogP in series [2] of 3.35.

With `Cn1oc(=O)nc1C(=NOCc1csc(NC(=O)C2(C)CC2)n1)c1ccccc1` [Example 16], the results for the Eff. % with Phytophthora infestans [1] and in the series with Plasmopara viticola were 97% and 91%, respectively. Moreover, the LogP in series [2] was 2.66.

Take `Cn1oc(=O)nc1C(=NOCc1csc(NC(=O)COCc2ccccc2)n1)c1ccccc1` [Example 17]: the Eff. % in the series with Phytophthora infestans [1] stood at 100%; with Plasmopara viticola it was 94%. Besides, the LogP in series [2] was found to be 3.06.

As for `Cn1oc(=O)nc1C(=NOCc1csc(NC(=O)SC(C)(C)C)n1)c1ccccc1` [Example 18], the Eff. % in the series with Phytophthora infestans [1] is listed as 97%; in the series with Plasmopara viticola it was 93%. In series [2], this compound showed a log partition coefficient (LogP) of 3.44.

Regarding `Cn1oc(=O)nc1C(=NOCc1csc(NC(=O)OC(C)(C)C)n1)c1ccccc1` [Example 20], the Eff. % turned out to be 92% in the series on Phytophthora infestans [1] and 94% in the series with Plasmopara viticola. Besides, in series [2], the LogP was determined as 3.06.

Regarding `Cn1oc(=O)nc1/C(=N\OCc1csc(NC(=O)C2CCc3ccccc3O2)n1)c1ccccc1` (stereo not drawn) [Example 22, N-{4-[({[(Z)-(2-methyl-5-oxo-2,5-dihydro-1,2,4-oxadiazol-3-yl)(phenyl)methylene]amino}oxy)methyl]-1,3-thiazol-2-yl}chromane-2-carboxamide], the Eff. % in the series with Phytophthora infestans [1] was 100%; in the series with Plasmopara viticola, 96%. In series [3], this compound registered a chromatographic logP of 3.35.

Regarding `Cn1oc(=O)nc1C(=NOCc1csc(NC(=O)C2Cc3ccccc3O2)n1)c1ccccc1` (stereo not drawn) [Example 24], the “% efficacy” value in the series with Phytophthora infestans [4] was 100%. Besides, the Eff. % with Phytophthora infestans [1] was 84%; in the series with Plasmopara viticola it was 93%. The compound further yielded a log partition coefficient (LogP) in series [2] of 3.06.

In the case of `Cc1cccc2c1OC(C(=O)Nc1nc(CON=C(c3ccccc3)c3nc(=O)on3C)cs1)CO2` (stereo not drawn) [Example 25], the Eff. % is recorded as 92% in the series on Phytophthora infestans [1] and 96% in the series with Plasmopara viticola. Moreover, the LogP in series [2] worked out at 3.42.

For `Cn1oc(=O)nc1C(=NOCc1csc(NC(=O)C2CCc3ccccc3C2)n1)c1ccccc1` (stereo not drawn) [Example 26], the Eff. % in the series on Phytophthora infestans [1] is listed as 92%; in the series with Plasmopara viticola it was 94%. The compound also showed a lipophilicity (LogP) in series [2] of 3.55.

Turning to `Cc1ccc(OC(C)C(=O)Nc2nc(CON=C(c3ccccc3)c3nc(=O)on3C)cs2)cc1` (stereo not drawn) [Example 27], the Eff. % in the series on Phytophthora infestans [1] is 95%; with Plasmopara viticola, 96%. In series [2], this compound yielded a lipophilicity (LogP) of 3.46.

As for `COc1cccc(/C(=N/OCc2csc(NC(=O)OC(C)(C)C)n2)c2nc(=O)on2C)c1` [Example 34], the “% efficacy” value with Phytophthora infestans [4] is reported as 100%. Further, the Eff. % in the series on Plasmopara viticola is on record as 95%. The LogP in series [2] came out at 3.13.

In series [3], `Cn1oc(=O)nc1/C(=N\OCc1csc(NC(=O)Cc2ccc(Cl)cc2)n1)c1ccccc1` [Example 98, 2-(4-chlorophenyl)-N-{4-[({[(Z)-(2-methyl-5-oxo-2,5-dihydro-1,2,4-oxadiazol-3-yl)(phenyl)methylene]amino}oxy)methyl]-1,3-thiazol-2-yl}acetamide] gave a chromatographic logP of 3.23.

The compound `Cn1oc(=O)nc1/C(=N\OCc1csc(Br)n1)c1ccccc1` [Example 99, 3-[(Z)-{[(2-bromo-1,3-thiazol-4-yl)methoxy]imino}(phenyl)methyl]-2-methyl-1,2,4-oxadiazol-5(2H)-one] yielded a chromatographic logP in series [3] of 2.68.

On to `Cn1oc(=O)nc1/C(=N\OCc1csc(NC(=S)Cc2ccc(Cl)cc2)n1)c1ccccc1` [Example 100, 2-(4-chlorophenyl)-N-{4-[({[(Z)-(2-methyl-5-oxo-2,5-dihydro-1,2,4-oxadiazol-3-yl)(phenyl)methylene]amino}oxy)methyl]-1,3-thiazol-2-yl}ethanethioamide], for which, in series [3], the chromatographic logP was 4.04.

On to `Cn1oc(=O)nc1/C(=N/OCc1csc(NC(=S)Cc2ccc(Cl)cc2)n1)c1ccccc1` [Example 101, 2-(4-chlorophenyl)-N-{4-[({[(E)-(2-methyl-5-oxo-2,5-dihydro-1,2,4-oxadiazol-3-yl)(phenyl)methylene]amino}oxy)methyl]-1,3-thiazol-2-yl}ethanethioamide], for which, in series [3], the chromatographic logP is 3.85. The chromatographic logP values of the last two compounds are within 0.2 log units of each other.

As for `CN(O)C(=N)/C(=N\OCc1csc(N)n1)c1ccccc1` [Example V-2, (2Z)-2-{[(2-amino-1,3-thiazol-4-yl)methoxy]imino}-N-hydroxy-N-methyl-2-phenylethanimidamide], the chromatographic logP in series [3] stood at 0.47.

As to `CN(O)C(=N)/C(=N\OCc1csc(Br)n1)c1ccccc1` [Example V-3, (2Z)-2-{[(2-bromo-1,3-thiazol-4-yl)methoxy]imino}-N-hydroxy-N-methyl-2-phenylethanimidamide], the chromatographic logP in series [3] was determined as 1.34.

Regarding `[H]/N=C(/C(=N\OCc1csc(NC(=O)OCCc2ccccc2)n1)c1ccccc1)N(O)CC` [Example V-4, 2-phenylethyl (4-{[({(1Z,2Z)-2-[ethyl(hydroxy)amino]-2-imino-1-phenylethylidene}amino)oxy]methyl}-1,3-thiazol-2-yl)carbamate], the chromatographic logP in series [3] was 2.07.
